Assay results published in PubChem BioAssay AID1845215 (Molecular Pharmacology Branch, DTP, NCI, 2023).

Tested on: SW 1271 complex tumor spheroid viability
Assay: Anticancer human tumor SW 1271 cell line growth inhibition;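 further: spheroids exposed to agents for seven days before readout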;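 on viability, T/C: percent of DMSO vehicle control luminescence so 100% = vehicle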
Conditions: for IC50: curve of first compound; for viability, T/C: stronger effect = lower value
Outline: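 Complex tumor spheroids combined malignant cells with endothelial cells and mesenchymal stem cells. DNA-damaging drugs and DNA repair inhibitors were tested alone and in combination, at half-log dilutions down from clinical Cmax (top 10 microM if Cmax unknown), 0.25% DMSO final.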

In the case of `[2H]c1nc(C)nc([2H])c1-c1cc(NC[C@@H](C)c2cccc3c(C(=O)NC)ccnc23)ncn1` + CC[C@@]1(O)C(=O)OCc2c1cc1n(c2=O)Cc2cc3c(CN(C)C)c(O)ccc3nc2-1, the IC50 (second compound 0.003 µM) is reported as > 10000 nM, the IC50 (second compound 0.00949 µM) is reported as 1350 nM and the IC50 (second compound 0.03 µM) is reported as < 31.6 nM. The IC50 (second compound 0.0949 µM) was < 31.6 nM, the IC50 (second compound 0.3 µM) was < 31.6 nM and the viability, T/C (second compound 0.003 µM, first compound 0.0316 µM) was 94.2%. For the same molecule, the viability, T/C (second compound 0.003 µM, first compound 0.1 µM) was 90.5%, the viability, T/C (second compound 0.003 µM, first compound 0.316 µM) was 95.4% and the viability, T/C (second compound 0.003 µM, first compound 1 µM) was 94.6%. For the same molecule, the viability, T/C (second compound 0.003 µM, first compound 3.16 µM) was 88.9%, the viability, T/C (second compound 0.003 µM, first compound 10 µM) was 79.9% and the viability, T/C (second compound 0.00949 µM, first compound 0.0316 µM) was 58.9%. For the same molecule, the viability, T/C (second compound 0.00949 µM, first compound 0.1 µM) was 51.1%, the viability, T/C (second compound 0.00949 µM, first compound 0.316 µM) was 58.7% and the viability, T/C (second compound 0.00949 µM, first compound 1 µM) was 48.3%. For the same molecule, the viability, T/C (second compound 0.00949 µM, first compound 3.16 µM) was 47.9%, the viability, T/C (second compound 0.00949 µM, first compound 10 µM) was 39.4% and the viability, T/C (second compound 0.03 µM, first compound 0.0316 µM) was 36.5%. It also gave a viability, T/C (second compound 0.03 µM, first compound 0.1 µM) of 35.3%, a viability, T/C (second compound 0.03 µM, first compound 0.316 µM) of 34.5% and a viability, T/C (second compound 0.03 µM, first compound 1 µM) of 36.6%. The viability, T/C (second compound 0.03 µM, first compound 3.16 µM) was 34.2%, the viability, T/C (second compound 0.03 µM, first compound 10 µM) was 31.6% and the viability, T/C (second compound 0.0949 µM, first compound 0.0316 µM) was 34%. For the same molecule, the viability, T/C (second compound 0.0949 µM, first compound 0.1 µM) was 32.6%, the viability, T/C (second compound 0.0949 µM, first compound 0.316 µM) was 30.1% and the viability, T/C (second compound 0.0949 µM, first compound 1 µM) was 31.4%. It also gave a viability, T/C (second compound 0.0949 µM, first compound 3.16 µM) of 33.1%, a viability, T/C (second compound 0.0949 µM, first compound 10 µM) of 26% and a viability, T/C (second compound 0.3 µM, first compound 0.0316 µM) of 19.9%. The viability, T/C (second compound 0.3 µM, first compound 0.1 µM) was 17.5%, the viability, T/C (second compound 0.3 µM, first compound 0.316 µM) was 15.1% and the viability, T/C (second compound 0.3 µM, first compound 1 µM) was 17%. The viability, T/C (second compound 0.3 µM, first compound 3.16 µM) was 14.2% and the viability, T/C (second compound 0.3 µM, first compound 10 µM) was 8.53%.

`Cn1ncnc1[C@H]1c2n[nH]c(=O)c3cc(F)cc(c23)N[C@@H]1c1ccc(F)cc1` + CC[C@@]1(O)C(=O)OCc2c1cc1n(c2=O)Cc2cc3c(CN(C)C)c(O)ccc3nc2-1 was tested, and the IC50 (second compound 0.003 µM) was < 9.49 nM, the IC50 (second compound 0.00949 µM) was < 9.49 nM and the IC50 (second compound 0.03 µM) was < 9.49 nM. For the same molecule, the IC50 (second compound 0.0949 µM) was < 9.49 nM, the IC50 (second compound 0.3 µM) was < 9.49 nM and the viability, T/C (second compound 0.003 µM, first compound 0.00949 µM) was 27.6%. For the same molecule, the viability, T/C (second compound 0.003 µM, first compound 0.03 µM) was 23.9%, the viability, T/C (second compound 0.003 µM, first compound 0.0949 µM) was 21.4% and the viability, T/C (second compound 0.003 µM, first compound 0.3 µM) was 24.1%. For the same molecule, the viability, T/C (second compound 0.003 µM, first compound 0.949 µM) was 23.4%, the viability, T/C (second compound 0.003 µM, first compound 3 µM) was 21.7% and the viability, T/C (second compound 0.00949 µM, first compound 0.00949 µM) was 26.2%. For the same molecule, the viability, T/C (second compound 0.00949 µM, first compound 0.03 µM) was 27.6%, the viability, T/C (second compound 0.00949 µM, first compound 0.0949 µM) was 28.4% and the viability, T/C (second compound 0.00949 µM, first compound 0.3 µM) was 25.9%. It also gave a viability, T/C (second compound 0.00949 µM, first compound 0.949 µM) of 26.7%, a viability, T/C (second compound 0.00949 µM, first compound 3 µM) of 17.2% and a viability, T/C (second compound 0.03 µM, first compound 0.00949 µM) of 27.7%. It also gave a viability, T/C (second compound 0.03 µM, first compound 0.03 µM) of 28.3%, a viability, T/C (second compound 0.03 µM, first compound 0.0949 µM) of 24.2% and a viability, T/C (second compound 0.03 µM, first compound 0.3 µM) of 25.2%. It also gave a viability, T/C (second compound 0.03 µM, first compound 0.949 µM) of 25%, a viability, T/C (second compound 0.03 µM, first compound 3 µM) of 18% and a viability, T/C (second compound 0.0949 µM, first compound 0.00949 µM) of 22.6%. The viability, T/C (second compound 0.0949 µM, first compound 0.03 µM) was 27.9%, the viability, T/C (second compound 0.0949 µM, first compound 0.0949 µM) was 28.1% and the viability, T/C (second compound 0.0949 µM, first compound 0.3 µM) was 23.7%. For the same molecule, the viability, T/C (second compound 0.0949 µM, first compound 0.949 µM) was 22%, the viability, T/C (second compound 0.0949 µM, first compound 3 µM) was 11.3% and the viability, T/C (second compound 0.3 µM, first compound 0.00949 µM) was 11.1%. For the same molecule, the viability, T/C (second compound 0.3 µM, first compound 0.03 µM) was 16.5%, the viability, T/C (second compound 0.3 µM, first compound 0.0949 µM) was 11.4% and the viability, T/C (second compound 0.3 µM, first compound 0.3 µM) was 9.66%. It also gave a viability, T/C (second compound 0.3 µM, first compound 0.949 µM) of 6.32% and a viability, T/C (second compound 0.3 µM, first compound 3 µM) of 3.75%.
